Laboratory results reported in US20060275303A1, “Modulating angiogenesis using LL-37/HCAP-18” (priority 2003, published 2006).
“Also recorded” adds a separate entry of the source. Where no end group is shown, it is not given here. [ ]: non-standard residue; d: D form.

Key:
[1] = system: HUVECs; test: Inhibition of the LL-37/hCAP-18-induced proliferative response of endothelial cells; assay type: cell-based, human; settings: for effect of the inhibitor on LL-37/hCAP-18-induced endothelial proliferation: HUVECs preincubated with the inhibitor (pertussis toxin 10 ng/ml); for effect of the inhibitor on baseline cell proliferation: HUVECs, without LL-37/hCAP-18
Experimental: (§1) Endothelial cells from human umbilical veins (HUVEC) were isolated as described before^8. 10^4 cells were seeded on six well plastic dishes in serum free medium. Different concentrations of LL-37 were added to the culture medium. VEGF (5 ng/ml, 165 amino acid variant, Sigma Chemicals, Munich, Germany) was used as positive control. After 72 h the cells were detached from the support and counted. Experiments were repeated ten times using synthetic LL-37/hCAP-18 (37 C-terminal amino acids) and the hexapeptide WKYMVm, wherein “m” denotes the D-form of the amino acid methionine, from two different sources (IPF Pharmaceuticals, Hannover, Germany and Institute for Biochemistry, Humboldt-University of Berlin, Germany). As control peptide we used the peptide L-14 […] to have any interactions with FPRL1 from the same source (Humboldt-University). Human serum (10%, donor with ABO blood group O) was applied under the same conditions to analyze any impact on induction of proliferation by LL-37. For inhibition experiments we applied inhibitors of G-protein coupled receptors (pertussis toxin, 10 ng/ml), PI-3K (wortmannin), and PKC (GF 109203X). For Matrigel assays HUVECs were seeded on Matrigel support (Beckton Dickinson, Franklin Lakes, N.J.) and cultivated in serum free medium in the absence or presence of 0.5 μg/ml LL-37. After 18 h, the cultures were inspected for the formation of rings and cords. Experiments were repeated three times.
As a next step we analyzed which mechanisms might be involved in the angiogenic activity of LL-37/hCAP-18. We applied inhibitors of G-protein coupled receptors (pertussis toxin), PI-3K (wortmannin), and PKC (GF 109203X) and monitored cell proliferation as outcome parameter.

[2] = system: HUVECs; test: In vitro proliferation assay with HUVECs; assay type: cell-based, human
Experimental: as §1
We measured the ability of LL-37/hCAP-18 to accelerate proliferation of HUVECs in a proliferation assay. […] HUVECs were seeded on six well plastic dishes and cultivated in serum free medium. Different concentrations of LL-37/hCAP-18 and control peptides were added to the culture medium. Figures on the left hand side indicate the numbers of cells per μl of volume after 72 h. VEGF was used as positive control. In vitro proliferation was not inhibited by human serum. A significance level of P<0.05 is labeled with **.b. […] HUVECs were seeded on Matrigel support and cultivated in serum free medium in the absence (c) or presence (d) of 0.5 μg/ml LL-37/hCAP-18. After 18 h, the cultures were inspected for the formation of rings and cords. Representative figures are shown.

[3] = system: ischemic hindlimb; test: Rabbit hind limb model of arteriogenesis and angiogenesis; assay type: in vivo; settings: 200 μg intramuscular 7 days after femoral artery excision, vs PBS control, day 35
Experimental: To analyze angiogenic effects of LL-37 in vivo we used a rabbit model of angiogenesis. German Giant Rabbits (6.5±0.4 kg, n=8) were subjected to ligation of the external iliac artery (proximally), the popliteal and saphenous arteries (distally) and all femoral artery branches, followed by excision of the entire femoral artery. Seven days after surgery, synthetic LL-37 (200 μg in 1 ml PBS) or PBS alone as control were injected into the muscles of the medial thigh and the calf (5 injections sites, n=4/group). Seven (baseline) and thirty-five days after surgery, angiography was performed by automated injection of contrast agent into the abdominal aorta (4 ml at 2 ml/sec; cine-angiography 25 frames/sec; Siemens, Munich, Germany). Collateral growth was defined as the increase in angiographic collateral score between baseline and 35 days after initial surgery (assessed by counting the contrast-opacified collateral vessels in the medial thigh using a grid overlay)^12. Blood flow was assessed by cine-frame-count of the passage time of contrast agent between the common iliac artery and the anterior tibial artery (proximal and distal landmarks), adapting the TIMI frame-count method to peripheral blood flow^13. Blood flow measurements correlate well with results obtained with doppler flow-wire in the internal iliac artery (Jomed, Haan, Germany). Tissue specimens were sampled from the right gastrocnemius and fibularis muscles for histology (alkaline phosphatase staining using an indoxyl-tetrazolium method), capillary density was assessed as the ratio of capillaries to muscle fibers (4 fields, 200× magnitude).
To assess the effect of LL-37/hCAP-18 on both angiogenesis and the induction of collateral circulation under pathological conditions, we applied the substance in a rabbit hind limb model. In this model angiogenesis and collateral vessel growth (arteriogenesis) are induced by excision of the femoral artery. Seven days after surgical excision of the femoral artery, baseline measurements were performed and LL-37/hCAP-18 or buffer as control were injected into the ischemic hindlimb.

[4] = system: HUVECs; test: In vitro Matrigel assay (formation of rings and cords); assay type: cell-based, human; settings: HUVECs on Matrigel, serum free medium, 0.5 μg/ml, 18 h
Experimental: Endothelial cells from human umbilical veins (HUVEC) were isolated as described before^8. 10^4 cells were seeded on six well plastic dishes in serum free medium. Different concentrations of LL-37 were added to the culture medium. VEGF (5 ng/ml, 165 amino acid variant, Sigma Chemicals, Munich, Germany) was used as positive control. After 72 h the cells were detached from the support and counted. Experiments were repeated ten times using synthetic LL-37/hCAP-18 (37 C-terminal amino acids) and the hexapeptide WKYMVm, wherein “m” denotes the D-form of the amino acid methionine, from two different sources (IPF Pharmaceuticals, Hannover, Germany and Institute for Biochemistry, Humboldt-University of Berlin, Germany). As control peptide we used the peptide L-14 […] to have any interactions with FPRL1 from the same source (Humboldt-University). Human serum (10%, donor with ABO blood group O) was applied under the same conditions to analyze any impact on induction of proliferation by LL-37. For inhibition experiments we applied inhibitors of G-protein coupled receptors (pertussis toxin, 10 ng/ml), PI-3K (wortmannin), and PKC (GF 109203X). […]
We measured the ability of LL-37/hCAP-18 to accelerate proliferation of HUVECs in a proliferation assay. […]

[5] = serum free medium, cell count after 72 h

## CN(C)CCCn1cc(C2=C(c3c[nH]c4ccccc34)C(=O)NC2=O)c2ccccc21 [GF 109203X]
[1]
  effect of the inhibitor on LL-37/hCAP-18-induced endothelial proliferation: inhibition of the proliferative response; also recorded: inhibited activities of LL-37/hCAP-18 on endothelial proliferation
  effect of the inhibitor on baseline cell proliferation: no effect on the baseline measurements

## LLGDFFRKSKEKIGKEFKRIVQRIKDFLRNLVPRTES [LL-37/hCAP-18, human cathelicidin antimicrobial peptide, the 37 C-terminal amino acid residues; synthetic peptide used in the tests]
[2]; 10% human serum, 72 h
  proliferative activity in the presence of human serum: not inhibited; also recorded: not blocked
[2]; [5]
  endothelial proliferation: dose-dependent increase of endothelial proliferation
  minimal concentration necessary to induce significant increase of proliferation: 50 ng/mL
[3]
  blood flow (cine-frame-count of contrast agent passage time): significantly increased; also recorded: significantly augmented
  capillary density (capillaries to muscle fibers, calf muscles): higher capillary density
  collateral growth (increase in angiographic collateral score, medial thigh): significantly increased collateral growth; also recorded: significant increase
[4]
  formation of rings and cords of cells: significantly induces the formation of visible rings and cords of cells

## WKYMVm (WKYMV[dM]) [synthetic hexapeptide, "m" denotes the D-form of methionine; specific agonist for FPRL1, reference compound]
[2]; [5]
  endothelial proliferation: stimulated proliferation of endothelial cells

## pertussis toxin
[1]
  effect of the inhibitor on LL-37/hCAP-18-induced endothelial proliferation: inhibition of the proliferative response; also recorded: inhibited activities of LL-37/hCAP-18 on endothelial proliferation
  effect of the inhibitor on baseline cell proliferation: no effect on the baseline measurements
